From US10894798B2, “Substituted dihydropyrrolopyrazole derivative” (UBE INDUSTRIES, LTD., priority 2015, dated 2021)
Where two headings read alike, the source gives them in different places.

Legend:
[1] = molecular target: T1, CDK2 (Homo sapiens, UniProt P24941); experiment: CDK2 enzyme inhibition test; type: biochemical; settings: [γ-33P]ATP, MBP substrate; Ki=IC50/(1+S/Km); read-out: Ki value of CDK2 inhibitory activity
T1 construct: purchased Invitrogen Corp. PV3267
Summary of the method: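 Commercial CDK2 phosphorylated MBP with [γ-33P]ATP (500 μM solution before mixing) in HEPES pH 7.4 buffer with DTT, Triton X-100 and MgCl2 for 20 min at 30 °C. TCA-precipitated 33P-MBP was counted by scintillation to give the IC50. Ki = IC50/(1+S/Km), with S the ATP concentration in the reaction.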

[2] = molecular target: T2, PLK1 (Homo sapiens, UniProt P53350); experiment: PLK1 enzyme (polo-like kinase) inhibition test; type: biochemical; settings: [γ-33P]ATP, casein substrate; Ki=IC50/(1+S/Km); read-out: Ki value of PLK1 inhibitory activity
T2 construct: purchased Carna Biosciences, Inc. 05-157
Summary of the method: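 Recombinant PLK1 phosphorylates casein with [γ-^33P]ATP in MOPS buffer (pH 7.0) containing DTT and magnesium acetate, 20 min at 30° C. Reaction stopped with TCA; washed precipitate counted by liquid scintillation. IC50 for inhibition of ^33P incorporation into casein, converted to Ki via Ki=IC50/(1+S/Km).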

[3] = test system: human large intestine cancer cell line (HCT-116); experiment: Human large intestine cancer (HCT-116) cell growth inhibition test; type: cell-based
Summary of the method: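 HCT-116 cells were seeded at 0.5 to 2.0×10^3 cells/well in McCoy's 5A with 10% FBS and dosed with compound at 0.1% final DMSO after overnight culture. Growth was measured by sulforhodamine B absorbance after 3 days. GI50 was calculated from the inhibition rate at each concentration.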

[4] = HCT-116 (row of Table 50), read-out: GI50 value (concentration necessary for inhibiting 50% of cell growth)
[5] = HCT-116, 72 h, culture for 3 days, sulforhodamine B, read-out: GI50 value, HCT-116 cell growth inhibition

T2 sequence (P53350 whole entry): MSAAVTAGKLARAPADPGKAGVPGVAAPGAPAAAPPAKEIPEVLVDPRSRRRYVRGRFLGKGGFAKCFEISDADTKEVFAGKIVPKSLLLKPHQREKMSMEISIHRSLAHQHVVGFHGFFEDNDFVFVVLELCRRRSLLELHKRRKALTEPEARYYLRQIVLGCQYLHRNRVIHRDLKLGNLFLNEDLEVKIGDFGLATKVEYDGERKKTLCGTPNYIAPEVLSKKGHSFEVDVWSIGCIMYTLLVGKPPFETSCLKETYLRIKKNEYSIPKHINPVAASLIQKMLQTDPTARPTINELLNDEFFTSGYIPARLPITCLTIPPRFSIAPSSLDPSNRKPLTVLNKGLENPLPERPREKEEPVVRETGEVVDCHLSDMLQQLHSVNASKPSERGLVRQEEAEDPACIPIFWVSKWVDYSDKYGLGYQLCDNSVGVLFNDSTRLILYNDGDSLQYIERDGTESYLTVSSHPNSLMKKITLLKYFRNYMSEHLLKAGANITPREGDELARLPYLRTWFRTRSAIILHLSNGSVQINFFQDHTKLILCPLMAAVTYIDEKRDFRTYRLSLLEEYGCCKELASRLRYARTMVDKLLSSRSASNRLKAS

Cc1cccc(Cl)c1NC(=O)N1Cc2c(NC(=O)C3([Si](C)(C)C)CCC3)n[nH]c2C1(C)C [IV-215, N-(2-Chloro-6-methylphenyl)-6,6-dimethyl-3-[1-(trimethylsilyl)cyclobutanecarboxamido]-4,6-dihydropyrrolo[3,4-c]pyrazole-5 (1H)-carboxamide]
Ki [1]: ≥ 1000 nM | Ki [2]: ≥ 5000 nM | GI50 [3, 4]: < 300 nM | GI50 [3, 5]: ≤ 100 nM

CC1(C)c2[nH]nc(NC(=O)C3([Si](C)(C)C)CCC3)c2CN1C(=O)Nc1c(F)ccc(F)c1F [IV-597, 6,6-Dimethyl-N-(2,3,6-trifluorophenyl)-3-[1-(trimethylsilyl)cyclobutanecarboxamido]-4,6-dihydropyrrolo[3,4-c]pyrazole-5(1H)-carboxamide]
Ki [1]: ≥ 1000 nM | Ki [2]: ≥ 5000 nM | GI50 [3, 5]: ≤ 100 nM

CC1(C)c2[nH]nc(NC(=O)C3([Si](C)(C)C)CCC3)c2CN1C(=O)Nc1c(F)cccc1OC(F)F [IV-169, N-[2-(Difluoromethoxy)-6-fluorophenyl]-6,6-dimethyl-3-[1-(trimethylsilyl)cyclobutanecarboxamido]-4,6-dihydropyrrolo[3,4-c]pyrazole-5(1H)-carboxamide]
Ki [1]: ≥ 1000 nM | Ki [2]: ≥ 5000 nM | GI50 [3, 5]: ≤ 100 nM

CC1(C)c2[nH]nc(NC(=O)C3([Si](C)(C)C)CCC3)c2CN1C(=O)Nc1c(F)cccc1Cl [IV-113, N-(2-Chloro-6-fluorophenyl)-6,6-dimethyl-3-[1-(trimethylsilyl)cyclobutanecarboxamido]-4,6-dihydropyrrolo[3,4-c]pyrazole-5(1H)-carboxamide]
Ki [1]: ≥ 1000 nM | Ki [2]: ≥ 5000 nM | GI50 [3, 5]: ≤ 100 nM

COc1cccc(F)c1NC(=O)N1Cc2c(NC(=O)C3([Si](C)(C)C)CCC3)n[nH]c2C1(C)C [IV-161, N-(2-Fluoro-6-methoxyphenyl)-6,6-dimethyl-3-[1-(trimethylsilyl)cyclobutanecarboxamido]-4,6-dihydropyrrolo[3,4-c]pyrazole-5(1H)-carboxamide]
Ki [1]: ≥ 1000 nM | Ki [2]: ≥ 5000 nM | GI50 [3, 5]: ≤ 100 nM

Cc1ccc(F)cc1NC(=O)N1Cc2c(NC(=O)C3([Si](C)(C)C)CCC3)n[nH]c2C1(C)C [IV-361, N-(5-Fluoro-2-methylphenyl)-6,6-dimethyl-3-[1-(trimethylsilyl)cyclobutanecarboxamido]-4,6-dihydropyrrolo[3,4-c]pyrazole-5 (1H)-carboxamide]
Ki [1]: ≥ 1000 nM | Ki [2]: ≥ 5000 nM | GI50 [3, 4]: < 300 nM | GI50 [3, 5]: ≤ 100 nM

CCc1cccc(F)c1NC(=O)N1Cc2c(NC(=O)C3([Si](C)(C)C)CCC3)n[nH]c2C1(C)C [IV-137, N-(2-Ethyl-6-fluorophenyl)-6,6-dimethyl-3-[1-(trimethylsilyl)cyclobutanecarboxamido]-4,6-dihydropyrrolo[3,4-c]pyrazole-5(1H)-carboxamide]
Ki [1]: ≥ 1000 nM | Ki [2]: ≥ 5000 nM | GI50 [3, 5]: ≤ 100 nM

COc1cccc(Cl)c1NC(=O)N1Cc2c(NC(=O)C3([Si](C)(C)C)CCC3)n[nH]c2C1(C)C [IV-247, N-(2-Chloro-6-methoxyphenyl)-6,6-dimethyl-3-[1-(trimethylsilyl)cyclobutanecarboxamido]-4,6-dihydropyrrolo[3,4-c]pyrazole-5(1H)-carboxamide]
Ki [1]: ≥ 1000 nM | Ki [2]: ≥ 5000 nM | GI50 [3, 5]: ≤ 100 nM

Cc1ccc(C)c(NC(=O)N2Cc3c(NC(=O)C4([Si](C)(C)C)CCC4)n[nH]c3C2(C)C)c1F [IV-669, N-(2-Fluoro-3,6-dimethylphenyl)-6,6-dimethyl-3-[1-(trimethylsilyl)cyclobutanecarboxamido]-4,6-dihydropyrrolo[3,4-c]pyrazole-5(1H)-carboxamide]
Ki [1]: ≥ 1000 nM | Ki [2]: ≥ 5000 nM | GI50 [3, 4]: < 300 nM | GI50 [3, 5]: ≤ 100 nM

CC1(C)c2[nH]nc(NC(=O)C3([Si](C)(C)C)CCC3)c2CN1C(=O)Nc1c(Cl)cccc1Cl [IV-199, N-(2,6-Dichlorophenyl)-6,6-dimethyl-3-[1-(trimethylsilyl)cyclobutanecarboxamido]-4,6-dihydropyrrolo[3,4-c]pyrazole-5(1H)-carboxamide]
Ki [1]: ≥ 1000 nM | Ki [2]: ≥ 5000 nM | GI50 [3, 5]: ≤ 100 nM

CC1(C)c2[nH]nc(NC(=O)C3([Si](C)(C)C)CCC3)c2CN1C(=O)Nc1c(F)ccc2ccoc12 [IV-1049, N-(6-Fluorobenzofuran-7-yl)-6,6-dimethyl-3-[1-(trimethylsilyl)cyclobutanecarboxamido]-4,6-dihydropyrrolo[3,4-c]pyrazole-5 (1H)-carboxamide]
Ki [1]: ≥ 1000 nM | Ki [2]: ≥ 5000 nM | GI50 [3, 4]: < 300 nM | GI50 [3, 5]: ≤ 100 nM

Cc1cccc(F)c1NC(=O)N1Cc2c(NC(=O)C3([Si](C)(C)C)CCC3)n[nH]c2C1(C)C [IV-129, N-(2-Fluoro-6-methylphenyl)-6,6-dimethyl-3-[1-(trimethylsilyl)cyclobutanecarboxamido]-4,6-dihydropyrrolo[3,4-c]pyrazole-5 (1H)-carboxamide]
Ki [1]: ≥ 1000 nM | Ki [2]: ≥ 5000 nM | GI50 [3, 5]: ≤ 100 nM

CC1(C)c2[nH]nc(NC(=O)C3([Si](C)(C)C)CCC3)c2CN1C(=O)Nc1c(F)ccc2cc(Cl)oc12 [IV-1063, N-(2-Chloro-6-fluorobenzofuran-7-yl)-6,6-dimethyl-3-[1-(trimethylsilyl)cyclobutanecarboxamido]-4,6-dihydropyrrolo[3,4-c]pyrazole-5(1H)-carboxamide]
Ki [1]: ≥ 1000 nM | Ki [2]: ≥ 5000 nM | GI50 [3, 5]: ≤ 100 nM

Cc1ccc(C)c(NC(=O)N2Cc3c(NC(=O)C4([Si](C)(C)C)CCC4)n[nH]c3C2(C)C)c1 [IV-379, N-(2,5-Dimethylphenyl)-6,6-dimethyl-3-[1-(trimethylsilyl)cyclobutanecarboxamido]-4,6-dihydropyrrolo[3,4-c]pyrazole-5(1H)-carboxamide]
Ki [1]: ≥ 1000 nM | Ki [2]: ≥ 5000 nM | GI50 [3, 4]: < 300 nM | GI50 [3, 5]: ≤ 100 nM

CCc1cccc(C)c1NC(=O)N1Cc2c(NC(=O)C3([Si](C)(C)C)CCC3)n[nH]c2C1(C)C [IV-389, N-(2-Ethyl-6-methylphenyl)-6,6-dimethyl-3-[1-(trimethylsilyl)cyclobutanecarboxamido]-4,6-dihydropyrrolo[3,4-c]pyrazole-5 (1H)-carboxamide]
Ki [1]: ≥ 1000 nM | Ki [2]: ≥ 5000 nM | GI50 [3, 5]: ≤ 100 nM

Cc1ccc(F)c(NC(=O)N2Cc3c(NC(=O)C4([Si](C)(C)C)CCC4)n[nH]c3C2(C)C)c1 [IV-127, N-(2-Fluoro-5-methylphenyl)-6,6-dimethyl-3-[1-(trimethylsilyl)cyclobutanecarboxamido]-4,6-dihydropyrrolo[3,4-c]pyrazole-5 (1H)-carboxamide]
Ki [1]: ≥ 1000 nM | Ki [2]: ≥ 5000 nM | GI50 [3, 5]: ≤ 100 nM

CC1(C)c2[nH]nc(NC(=O)C3([Si](C)(C)C)CCC3)c2CN1C(=O)Nc1ccccc1Br [IV-15, N-(2-Bromophenyl)-6,6-dimethyl-3-[1-(trimethylsilyl)cyclobutanecarboxamido]-4,6-dihydropyrrolo[3,4-c]pyrazole-5(1H)-carboxamide]
Ki [1]: ≥ 1000 nM | Ki [2]: ≥ 5000 nM | GI50 [3, 5]: ≤ 100 nM

Cc1cc(F)ccc1NC(=O)N1Cc2c(NC(=O)C3([Si](C)(C)C)CCC3)n[nH]c2C1(C)C [IV-359, N-(4-Fluoro-2-methylphenyl)-6,6-dimethyl-3-[1-(trimethylsilyl)cyclobutanecarboxamido]-4,6-dihydropyrrolo[3,4-c]pyrazole-5 (1H)-carboxamide]
Ki [1]: ≥ 1000 nM | Ki [2]: ≥ 5000 nM | GI50 [3, 5]: ≤ 100 nM

Cc1ccccc1NC(=O)N1Cc2c(NC(=O)C3([Si](C)(C)C)CCC3)n[nH]c2C1(C)C [IV-21, 6,6-Dimethyl-N-(o-tolyl)-3-[1-(trimethylsilyl)cyclobutanecarboxamido]-4,6-dihydropyrrolo[3,4-c]pyrazole-5(1H)-carboxamide]
Ki [1]: ≥ 1000 nM | Ki [2]: ≥ 5000 nM | GI50 [3, 5]: ≤ 100 nM

CC1(C)c2[nH]nc(NC(=O)C3([Si](C)(C)C)CCC3)c2CN1C(=O)Nc1ccccc1F [IV-3, N-(2-Fluorophenyl)-6,6-dimethyl-3-[1-(trimethylsilyl)cyclobutanecarboxamido]-4,6-dihydropyrrolo[3,4-c]pyrazole-5(1H)-carboxamide]
Ki [1]: ≥ 1000 nM | Ki [2]: ≥ 5000 nM | GI50 [3, 4]: < 300 nM | GI50 [3, 5]: ≤ 100 nM

Cc1cccc(Br)c1NC(=O)N1Cc2c(NC(=O)C3([Si](C)(C)C)CCC3)n[nH]c2C1(C)C [IV-299, N-(2-Bromo-6-methylphenyl)-6,6-dimethyl-3-[1-(trimethylsilyl)cyclobutanecarboxamido]-4,6-dihydropyrrolo[3,4-c]pyrazole-5 (1H)-carboxamide]
Ki [1]: ≥ 1000 nM | Ki [2]: ≥ 5000 nM | GI50 [3, 4]: < 300 nM | GI50 [3, 5]: ≤ 100 nM
